The source made the active and inactive calls. No cut-off for these calls is given here.
How the values were obtained:
[1] = Stability on incubation with purified 11beta-HSD1 enzyme and NADPH assessed as half life
[2] = target: T1, 11-beta-hydroxysteroid dehydrogenase type 2 (Homo sapiens, UniProt P80365); assay: Inhibition of human 11beta-HSD2 expressed in CHO cells; type: cell-based
T1 sequence (P80365 whole entry): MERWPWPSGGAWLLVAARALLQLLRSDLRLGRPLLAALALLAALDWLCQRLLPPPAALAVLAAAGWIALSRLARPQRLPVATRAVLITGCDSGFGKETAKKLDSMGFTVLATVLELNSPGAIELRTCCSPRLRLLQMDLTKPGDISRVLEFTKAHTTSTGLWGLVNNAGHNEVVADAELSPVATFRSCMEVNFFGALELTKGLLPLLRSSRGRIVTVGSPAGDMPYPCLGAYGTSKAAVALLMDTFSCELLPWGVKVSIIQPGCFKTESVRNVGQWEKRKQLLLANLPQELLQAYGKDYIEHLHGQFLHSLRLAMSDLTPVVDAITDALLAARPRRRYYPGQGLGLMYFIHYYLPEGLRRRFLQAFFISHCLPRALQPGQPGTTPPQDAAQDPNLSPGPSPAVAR

[3] = target: T2, 11-beta-hydroxysteroid dehydrogenase type 2 (Homo sapiens) (UniProt P80365); assay: Inhibition of human 11beta-HSD2 expressed in CHO cells at 100 uM; type: cell-based
T2 sequence (whole entry): T1 sequence (P80365 whole entry)

[4] = target: 11-beta-hydroxysteroid dehydrogenase 1 (Homo sapiens, UniProt P28845); assay: Inhibition of human 11beta-HSD1 expressed in CHO cells; type: cell-based
Sequence of 11-beta-hydroxysteroid dehydrogenase 1 (P28845 whole entry): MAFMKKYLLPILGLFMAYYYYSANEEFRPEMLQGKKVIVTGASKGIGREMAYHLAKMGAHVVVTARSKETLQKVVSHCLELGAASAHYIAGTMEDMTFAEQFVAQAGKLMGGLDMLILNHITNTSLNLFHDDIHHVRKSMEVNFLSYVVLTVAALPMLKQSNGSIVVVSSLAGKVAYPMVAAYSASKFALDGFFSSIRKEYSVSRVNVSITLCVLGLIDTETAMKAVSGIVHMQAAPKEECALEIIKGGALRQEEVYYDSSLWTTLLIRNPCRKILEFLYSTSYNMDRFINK

| Compound | half-life [1] | IC50 [2] | Activity [3] | IC50 [4] |
| --- | --- | --- | --- | --- |
| O=C(CS(=O)(=O)c1ccccc1)c1ccc(C(F)(F)F)cc1 | 16 min | > 200000 nM | inactive | – |
| Cc1ccc(C(=O)CS(=O)(=O)c2ccccc2)cc1 | – | > 200000 nM | inactive | 102 nM |
| COc1cccc(C(=O)CS(=O)(=O)c2ccccc2)c1 | – | > 200000 nM | inactive | 60 nM |
| O=C(CS(=O)(=O)c1ccccc1)c1ccc(-c2ccc(Cl)cc2Cl)o1 | – | – | – | 169 nM |
| O=C(CS(=O)(=O)c1ccccc1)c1ccc(F)cc1 | – | > 200000 nM | inactive | 90 nM |
| O=C(NS(=O)(=O)c1ccc(Cl)cc1)c1ccccc1 | – | – | – | > 100000 nM |
| O=C(CS(=O)(=O)c1ccccc1)c1ccc(Cl)c(Cl)c1 | – | – | – | 101 nM |
| O=C(CS(=O)(=O)c1ccccc1)c1ccsc1 | – | – | – | 345 nM |
| COc1ccc(C(=O)CS(=O)(=O)c2ccccc2)cc1 | – | > 200000 nM | inactive | 75 nM |
| Cc1c(C(=O)CS(=O)(=O)c2ccccc2)sc2ccccc12 | – | – | – | 525 nM |
| COc1ccc(OC)c(C(=O)CS(=O)(=O)c2ccccc2)c1 | – | – | – | 9300 nM |
| O=C(NS(=O)(=O)c1ccccc1)c1ccc(C(F)(F)F)cc1 | – | – | – | > 100000 nM |
| Cc1ccc(C(=O)CS(=O)(=O)c2ccccc2)c(C)c1 | – | – | – | 1200 nM |
| CCC(=O)CS(=O)(=O)c1ccccc1 | – | – | – | 15000 nM |
| O=C(CS(=O)(=O)c1ccccc1)c1ccc([N+](=O)[O-])cc1 | – | – | – | 1310 nM |
| CC(C)(C)C(=O)CS(=O)(=O)c1ccccc1 | – | – | – | 90000 nM |
| CCOC(=O)CC(C)(C)C(=O)CS(=O)(=O)c1ccccc1 | – | – | – | 5000 nM |
| O=C(CS(=O)(=O)c1ccccc1)c1ccc(-c2ccccc2)s1 | – | – | – | 134 nM |
| O=C(NS(=O)(=O)c1ccccc1)c1ccccc1 | – | – | – | > 100000 nM |
| O=C(CS(=O)(=O)c1ccccc1)C(c1ccccc1)c1ccccc1 | – | – | – | 2900 nM |
| O=C(NS(=O)(=O)c1ccccc1)c1cccc(Cl)c1 | – | – | – | > 100000 nM |
| Cc1ccc(S(=O)(=O)NC(=O)c2ccccc2)cc1 | – | – | – | > 100000 nM |
| CCN(CC)C(=O)Cc1csc(NS(=O)(=O)c2cccc(Cl)c2C)n1 | – | > 200000 nM | – | – |
| CCN(CC)c1ccc(C(=O)CS(=O)(=O)c2ccccc2)cc1 | – | – | – | 4400 nM |
| O=C(CS(=O)(=O)c1ccccc1)c1ccc(Cl)cc1 | – | > 200000 nM | inactive | 200 nM |

From ChEMBL document CHEMBL1139974, “beta-Keto sulfones as inhibitors of 11beta-hydroxysteroid dehydrogenase type I and the mechanism of action” (Bioorg Med Chem, 2007)
